Laboratory results: ChEMBL document CHEMBL1139919, “Beta-substituted cyclohexanecarboxamide cathepsin K inhibitors: modification of the 1,2-disubstituted aromatic core” (Bioorg Med Chem Lett, 2007)

What was measured:
Homo sapiens [1] = species on record: Homo sapiens; test: Selectivity for human cathepsin K over human cathepsin S
Oryctolagus cuniculus [2] = species on record: Oryctolagus cuniculus; test: Inhibition of bone resorption in New Zealand white rabbit by crosslaps ELISA assay; type: functional, organism-based
Homo sapiens [3] = species on record: Homo sapiens; test: Selectivity for human cathepsin K over human cathepsin B
Cathepsin K [4] = biological target: Cathepsin K (Homo sapiens, UniProt P43235); test: Inhibition of humaized rabbit cathepsin K
Oryctolagus cuniculus [5] = species on record: Oryctolagus cuniculus; test: Selectivity for IC50 of new Zealand white […] bone resorption over IC50 rabbit cathepsin K; type: functional
Homo sapiens [6] = species on record: Homo sapiens; test: Selectivity for human cathepsin K over human cathepsin L
Cathepsin K [7] = biological target: T1, Cathepsin K (Oryctolagus cuniculus, UniProt P43236); test: Inhibition of rabbit cathepsin K
T1 sequence (P43236 whole entry): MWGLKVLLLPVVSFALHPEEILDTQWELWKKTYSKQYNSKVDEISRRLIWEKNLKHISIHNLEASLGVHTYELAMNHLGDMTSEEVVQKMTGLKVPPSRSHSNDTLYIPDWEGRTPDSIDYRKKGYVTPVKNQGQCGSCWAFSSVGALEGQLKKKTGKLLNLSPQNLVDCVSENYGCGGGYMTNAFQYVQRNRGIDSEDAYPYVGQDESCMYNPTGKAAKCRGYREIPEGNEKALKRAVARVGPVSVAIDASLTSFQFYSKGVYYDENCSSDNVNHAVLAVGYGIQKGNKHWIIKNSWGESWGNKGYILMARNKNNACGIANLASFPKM

[8] = AUC in rat at 10 mg/kg, po or 5 mg/kg, iv; type: ADME, organism-based; conditions: plasma
[9] = Oral bioavailability in rat at 10 mg/kg; type: ADME, organism-based; conditions: in vivo
[10] = Half life in rat at 10 mg/kg, po or 5 mg/kg, iv; type: ADME, organism-based; conditions: in vivo
[11] = Oral bioavailability in rat at 5 mg/kg; type: ADME, organism-based; conditions: in vivo
[12] = Half life in rat at 5 mg/kg, po or 1 mg/kg, iv; type: ADME, organism-based; conditions: in vivo
[13] = AUC in rat at 5 mg/kg, po or 1 mg/kg, iv; type: ADME, organism-based; conditions: plasma

Structure (SMILES) | Selectivity ratio (Homo sapiens [1]) | IC50 (Oryctolagus cuniculus [2]; Oryctolagus cuniculus) [nM] | Selectivity ratio (Homo sapiens [3]) | IC50 (Cathepsin K [4]) [nM] | Ratio IC50 (Oryctolagus cuniculus [5]) | Selectivity ratio (Homo sapiens [6]) | IC50 (Cathepsin K [7]) [nM] | IC50 (Oryctolagus cuniculus [2]) [nM] | AUC [8] [µM·h] | bioavailability [9] [%] | half-life [10] [h] | bioavailability [11] [%] | half-life [12] [h] | AUC [13] [µM·h]
CSc1ccc(-c2c[nH]c(=O)cc2C2CCC(F)(F)CC2C(=O)NCC#N)cc1 (racemic) | 540 | 20 | 1200 | 4 | 4 | 410 | 5 |  |  |  |  |  |  | 
CSc1ccc(-c2ccccc2C2CCC(F)(F)CC2C(=O)NCC#N)cc1 (racemic; form 2) [listing 1 of 2 here] |  |  |  | 0.5 |  |  |  | 38 |  |  |  |  |  | 
CSc1ccc(-c2nc(C)sc2C2CCC(F)(F)CC2C(=O)NCC#N)cc1 (racemic) | 380 | 17 | 15000 | 0.2 | 170 | 270 | 0.1 |  |  |  |  |  |  | 
CSc1ccc(-c2ccccc2C2CCC(F)(F)CC2C(=O)NCC#N)cc1 (racemic; form 1) [listing 1 of 2 here] |  |  |  | 0.3 |  |  | 0.3 | 16 | 18.5 | 39 |  |  |  | 
CSc1ccc(-c2c(C3CCC(F)(F)CC3C(=O)NCC#N)nnn2Cc2ccccc2)cc1 (racemic) | 180 | 33 | 1400 | 2 | 4 | 350 | 9 |  |  |  |  |  |  | 
N#CCNC(=O)C1CC(F)(F)CCC1c1cnccc1-c1ccc(SCF)cc1 (racemic) | 450 | 58 | > 5000 | 2 | 29 | 260 | 2 |  |  |  |  |  |  | 
CSc1ccc(-c2cn(C)nc2C2CCC(F)(F)CC2C(=O)NCC#N)cc1 (racemic) | 490 | 41 | 9500 | 0.4 | 103 | 730 | 0.4 |  | 28.9 | 100 | 4.6 |  |  | 
CSc1ccc(-c2c[n+]([O-])ccc2C2CCC(F)(F)CC2C(=O)NCC#N)cc1 (racemic) | 480 | 75 | > 2000 | 5 | 15 | 460 | 5 |  |  |  |  |  |  | 
CSc1ccc(-c2ccccc2C2CCC(F)(F)CC2C(=O)NCC#N)cc1 (racemic; form 1) [listing 2 of 2 here] | 940 |  | > 36000 |  | 53 | 780 |  |  |  |  |  |  |  | 
CSc1ccc(-c2cnccc2C2CCC(F)(F)CC2C(=O)NCC#N)cc1 (racemic) | 720 | 18 | > 10000 | 1 | 18 | 520 | 1 |  |  |  |  | 65 | 1 | 8.6
CSc1ccc(-c2c(C3CCC(F)(F)CC3C(=O)NCC#N)cc[nH]c2=O)cc1 (racemic) | 310 | 84 | > 1250 | 8 | 14 | 430 | 6 |  |  |  |  |  |  | 
CSc1ccc(-c2ccccc2C2CCC(F)(F)CC2C(=O)NCC#N)cc1 (racemic; form 2) [listing 2 of 2 here] | 1100 |  | > 120000 |  | 76 | 880 |  |  |  |  |  |  |  | 
CSc1ccc(-c2ncccc2C2CCC(F)(F)CC2C(=O)NCC#N)cc1 (racemic) | 850 | 10 | > 10000 | 1 | 10 | 540 | 1 |  |  |  |  |  |  | 
